Measurements as given in patent US12502380B2, “MrgprX2 antagonists for the treatment of inflammatory disorders” (Dermira, Inc., priority 2019, dated 2025).

Target: T1, Human MrgprX2 (Homo sapiens, UniProt Q96LB1)
T1 construct: expressed in transfected cells
T1 sequence (Q96LB1 1-330): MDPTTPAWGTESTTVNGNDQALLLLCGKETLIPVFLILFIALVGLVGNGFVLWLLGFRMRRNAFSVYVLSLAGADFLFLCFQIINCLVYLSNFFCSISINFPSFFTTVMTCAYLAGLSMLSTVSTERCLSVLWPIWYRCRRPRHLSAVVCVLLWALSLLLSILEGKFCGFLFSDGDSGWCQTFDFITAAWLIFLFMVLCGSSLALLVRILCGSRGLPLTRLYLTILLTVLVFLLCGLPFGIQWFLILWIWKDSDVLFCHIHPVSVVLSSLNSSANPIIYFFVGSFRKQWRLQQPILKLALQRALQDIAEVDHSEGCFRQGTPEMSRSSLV
Test: Human MrgprX2 antagonist FLIPR intracellular calcium mobilization assay
Type: cell-based
Conditions: antagonist activity, recombinant hMrgpMRGPRX2 expressing cells, read-out: Human MrgprX2 Antagonist pIC50 (converted)
How it was run: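 Antagonist activity was read as inhibition of intracellular calcium mobilization (FLIPR) in recombinant cells expressing human MrgprX2. Potency was also checked in LAD-2 human mast cells with endogenous receptor, and orthologue activity in cells expressing mouse MrgprB2, mouse MrgprA1, and gerbil, Chinese hamster and cynomolgus orthologues.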

Row | IC50 [nM] | SMILES
1 | 5.01 | CC1(C(=O)Nc2ncc(Oc3cccc(F)c3)s2)CCOCC1 [Compound E070, N-[5-(3-fluorophenoxy)thiazol-2-yl]-4-methyl-tetrahydropyran-4-carboxamide]
2 | 7940 | CC(C)N(C)C(=O)c1ncc(Cc2cccc(F)c2)s1 [Compound E218, 5-[(3-fluorophenyl)methyl]-N-isopropyl-N-methyl-thiazole-2-carboxamide]
3 | 3.98 | CC1(C(=O)Nc2ncc(Oc3cccc(Cl)c3)s2)CCOCC1 [Compound E079]
4 | 316 | CCN(C[C@H](C)O)C(=O)Nc1ncc(Oc2ccccc2C#N)s1 [Compound E175]
5 | 398 | O=C(CN1CCCCC1)Nc1ncc(Cc2ccccc2F)s1 [Compound E013]
6 | 7940 | CCN(C[C@H](C)O)C(=O)Nc1cnc(Oc2cc(F)cc(F)c2)s1 [Compound E215]
7 | 6310 | NC(=O)[C@@H]1CCCN1C(=O)Nc1ncc(Cc2cccc(F)c2)s1 [Compound E131]
8 | 6.31 | CCN(C[C@H](C)O)C(=O)Nc1ncc(Oc2ccc(C#N)cc2F)s1 [Compound E190]
9 | 7.94 | CC(C)C(=O)Nc1ncc(Cc2ccc(F)c(F)c2)s1 [Compound E043]
10 | 398 | C[C@H](O)CN(C)C(=O)Nc1ncc(Oc2cccc(C#N)c2F)s1 [Compound E198]
11 | 0.794 | CCN(C[C@H](C)O)C(=O)Nc1ncc(Oc2cccc(Cl)c2)s1 [Compound E153]
12 | 1580 | CS(=O)(=O)N1CCC[C@@H]1C(=O)Nc1ncc(Cc2cccc(F)c2)s1 [Compound E056, (2R)—N-[5-[(3-fluorophenyl)methyl]thiazol-2-yl]-1-methylsulfonyl-pyrrolidine-2-carboxamide]
13 | 1.58 | CCN(C[C@H](C)O)C(=O)Nc1ncc(Oc2cccc(C#N)c2)s1 [Compound E162]
14 | 15.8 | CC1(C(=O)Nc2ncc(Cc3cc(F)cc(F)c3)s2)CCOCC1 [Compound E044]
15 | 39.8 | CC(C)(C(=O)Nc1ncc(Cc2ccccc2F)s1)N1CCOCC1 [Compound E003]
16 | 1.58 | C[C@H](O)CN(C)C(=O)Nc1ncc(Oc2cccc(F)c2)s1 [Compound E152]
17 | 39.8 | CCN(C[C@H](C)O)C(=O)Nc1ncc(Cc2cc(F)ccc2OC)s1 [Compound E139]
18 | 2510 | CC(C)C(=O)Nc1nc(C#N)c(Oc2ccc(F)cc2)s1 [Compound E081]
19 | 2000 | C[C@]1(C(=O)Nc2ncc(Cc3cccc(F)c3)s2)CCCN1 [Compound E061, (2R)—N-[5-[(3-fluorophenyl)methyl]thiazol-2-yl]-2-methyl-pyrrolidine-2-carboxamide]
20 | 501 | CCN(C[C@H](C)O)C(=O)Nc1ncc(Cc2cccc(F)c2OC)s1 [Compound E140]
21 | 631 | Cc1nc(NC(=O)C(C)C)sc1Cc1ccccc1 [Compound E040]
22 | 31.6 | CCN(C[C@H](C)O)C(=O)Nc1ncc(Oc2cncc(C#N)c2)s1 [Compound E173]

Row | IC50 [nM] | SMILES
23 | 31.6 | C[C@H](O)CN(C)C(=O)Nc1ncc(Cc2cccc(Cl)c2)s1 [Compound E116]
24 | 3.16 | CCN(C[C@H](C)O)C(=O)Nc1ncc(Cc2cccc(Cl)c2)s1 [Compound E098, 3-[5-[(3-chlorophenyl)methyl]thiazol-2-yl]-1-ethyl-1-[(2S)-2-hydroxypropyl]urea]
25 | 6.31 | CN(CC1(O)CC1)C(=O)Nc1ncc(Cc2cccc(F)c2)s1 [Compound E122]
26 | 3.16 | CCN(C[C@@H](C)O)C(=O)Nc1ncc(Oc2ccc(F)cc2)s1 [Compound E204]
27 | 251 | CN(CCO)C(=O)Nc1ncc(Oc2ccc(F)cc2)s1 [Compound E205]
28 | 25.1 | CN(C[C@H](O)C(F)(F)F)C(=O)Nc1ncc(Cc2cccc(F)c2)s1 [Compound E109]
29 | 31.6 | CC(C)C(=O)Nc1ncc(Oc2ccccc2F)s1 [Compound E075]
30 | 3980 | C[C@H]1CN(C(=O)Nc2ncc(Cc3cccc(F)c3)s2)CCO1 [Compound E107]
31 | 1260 | CCN(C[C@H](C)O)C(=O)Nc1ncc(Oc2ccc(CC#N)cc2)s1 [Compound E213]
32 | 316 | CC(C)(C)OC(=O)N1CCC(C)(C(=O)Nc2ncc(Cc3ccccc3F)s2)CC1 [Compound E018]
33 | 501 | CN(C)C(C)(C)C(=O)Nc1ncc(Cc2ccccc2F)s1 [Compound E011]
34 | 631 | C[C@H](C(=O)Nc1ncc(Cc2cccc(F)c2)s1)N(C)S(N)(=O)=O [Compound E068]
35 | 7.94 | CC(C)CN(C)C(=O)Nc1ncc(Cc2cccc(F)c2)s1 [Compound E125]
36 | 5.01 | CCN(C[C@H](C)O)C(=O)Nc1ncc(Oc2ccc(F)c(C#N)c2)s1 [Compound E184]
37 | 6310 | N#CC1(C(=O)Nc2ncc(Cc3ccccc3F)s2)CCOCC1 [Compound E028]
38 | 200 | C[C@]1(C(=O)Nc2ncc(Cc3cccc(F)c3)s2)CCOC1 (single isomer, unassigned) [Compound E049, N-[5-[(3-fluorophenyl)methyl]thiazol-2-yl]-3-methyl-tetrahydrofuran-3-carboxamide]
39 | 3.16 | C[C@]1(C(=O)Nc2ncc(Oc3cccc(F)c3)s2)CCOC1 (single isomer, unassigned) [Compound E084, N-[5-(3-fluorophenoxy)thiazol-2-yl]-3-methyl-tetrahydrofuran-3-carboxamide]
40 | 2510 | O=C(Nc1ncc(Oc2ccccc2)s1)[C@H]1CCCN1 [Compound E085, (2R)—N-(5-phenoxythiazol-2-yl)pyrrolidine-2-carboxamide]
41 | 3980 | CC(C)(O)C(=O)Nc1ncc(Cc2ccccc2F)s1 [Compound E005]
42 | 251 | CC(C)(F)C(=O)Nc1ncc(Cc2ccccc2F)s1 [Compound E021]
43 | 5.01 | CC1(C(=O)Nc2ncc(Cc3cc(F)cc(F)c3)s2)CCOC1 (stereo not shown) [Compound E046, N-[5-[(3,5-difluorophenyl)methyl]thiazol-2-yl]-3-methyl-tetrahydrofuran-3-carboxamide]
